Results on 9 compounds are retold here after patent publication US20220000964A1, “Compositions and Methods for Regulating Homeostasis of Chondrocytes, Extracellular Matrix, Articular Cartilage, and Phenotype of Arthritis” (Unigen, Inc., priority 2020, published 2022).

One test concerns Sprague Dawley rats. The experiment in a line: Hot plate test, topical application, paw withdrawal latency. As to conditions: for Paw withdrawal threshold (latency) Mean ± SD: in s (unit assumed); for increase in paw withdrawal latency as compared to vehicle: 5% concentration; for % Change: negative = increased paw withdrawal latency. The class given is in vivo, rat. An excerpt: Repeated application of anti-inflammatory compounds or extracts topically at the site of thermal contact (noxious stimulus) may cause desensitization of the peripheral afferent pain receptors to produce a delay in response time. A longer change in reaction time could be interpreted as an anti-nociceptive effect of the applied compound. To evaluate whether prepared plant extracts and compositions could provide anti-nociceptive activity, rats received orally-active anti-inflammatory extracts formulated in 2% Aloe vera gel at 5% concentration topically on their hind paws. The applied preparations on each paw were massaged at least 60 times in a circular motion into the skin until the applied content appeared visually absorbed. The procedure was repeated 3 times, every 30 minutes, before placing the animals on a preheated hot plate set to 53° C. The paw withdrawal latency was calculated as the time elapsed from the initial placement of the rat onto the hotplate to the withdrawal (or licking or shaking) of the hind paw in response to the thermal stimulus. Animals were immediately removed when this response was observed.
The anti-pain activity of medicinal plant extracts was tested on a hot plate set at 53° C. Test materials at 5% concentrations were topically applied at 20 μl/paw to the hind paws of both right and left paws of Sprague Dawley rats (n=10 per group). Applications of these extracts were carried out every 30 minutes for a total of 90 minutes. Within these 90 minutes, rats received a total of 60 μl/paw of the test article per rat. At 5% concentration, each rat received 3 mg/paw of the test articles. Due to the solubility characteristics of the compounds, two types of vehicles, V1=Dimethyl sulfoxide (DMSO)+propylene glycol (PG)+Aloe (2%), and V2=DMSO+OIL+PG, were used. Percent changes and P-values for statistical significance were determined using respective vehicles for each test material. The vehicle used for each material has been indicated in the parenthesis next to the test material. […] These increases in anti-pain activity were statistically significant. […] This percent change was statistically significant when compared to its respective vehicle.

Test [1] concerns rabbit cartilage explants. The test can be described thus: Inhibition of glycosaminoglycan (GAG) release, rabbit cartilage explants stimulated with rhIL-1α. As to conditions: for inhibition at 25 µg/mL: 25 μg/ml; for inhibition at 100 µg/mL: 100 μg/ml. The class given is cell-based. How it is done:
Articular cartilage from hock joints of rabbits (2.5 kg body weight) was removed immediately after each animal was sacrificed. The articular cartilage explants were obtained by following the method described by Sandy et al, 1986. Briefly, after the articular surfaces were exposed surgically under sterile conditions, approximately 200-220 mg articular surfaces per joint were dissected and submerged into complete medium (DMEM, supplemented with heat inactivated 5% FBS; penicillin 100 U/ml; streptomycin 100 μg/ml). They were then rinsed several times with the complete medium and incubated for 2 days at 37° C. in a humidified 5% CO2/95% air incubator for stabilization. The complete medium was replaced with a basal medium (DMEM, supplemented with heat-inactivated 1% FBS, 10 mM HEPES, and penicillin 100 U/ml streptomycin 100 μg/ml). Approximately 30 mg cartilage pieces (2×3×0.35 mm/piece) were placed in 48-well plates and treated with given concentrations of test agents. After pretreatment for 1 h, 5 ng/ml of rhIL-1α was added to the culture medium and further incubated at 37° C. in a humidified 5% CO2/95% air incubator. The culture medium was collected 24 h later and stored at −80° C. until assay.
The amount of sulphated GAGs in the medium at the end of the reaction, reflecting the amount of articular cartilage degradation, was determined through 1,9-dimethy-methylene blue method using commercially available kit (the Blyscan proteoglycan and glycosaminoglycan assay) according to the instructions of the manufacturer. Diclofenac was utilized as a positive control at 300 μg/ml.
Dose curves of Alpinia, Pepper, Magnolia, and Kochia plant extracts were tested on the ex vivo glycosaminoglycan (GAG) release assay as illustrated in previous example to assess their cartilage protection effects. Cartilage explants were pre-treated with each extract before being exposed to IL-1α, which caused degradation and the release of GAGs from the cartilage matrix.

For test [2], the system named is Carrageenan-induced paw edema in rats. The test can be described thus: Carrageenan-induced paw edema in rats, paw edema (anti-inflammation). The class given is in vivo, rat. How it is done: (§1) Carrageenan-induced paw edema in rats was used to evaluate the anti-inflammatory and anti-pain activities of individual Alpinia, Pepper, Magnolia and Kochia extracts. Sprague Dawley (SD) rats (N=5 per group) were given Alpinia, Pepper, Magnolia and Kochia extracts at 300 mg/kg orally one hour […] intra-plantar injection of 100 μl carrageenan. Pain sensitivity and paw edema were monitored at T0 (before carrageenan) and 2, 4 and 6 hours after carrageenan. Ibuprofen as a positive control was used at 150 mg/kg.
(§2) Rats were gavaged with each constituent as they appeared in the 300 mg/kg of the AMK individually in order to determine whether the plant extracts acted synergistically. For the 2:4:3 ratio of AMK, rats were administered with 67 mg/kg of Alpinia extract, 133 mg/kg of Magnolia extract and 100 mg/kg of Kochia extract. The percent inhibition of pain and inflammation of the combined compositions at 300 mg/kg were compared with those dosages of individual extracts to find out potential additive, antagonistic or synergistic effects in combination using the Colby's equation.
(§3) The merit of combining Alpinia with Pepper for AP (1:2 ratio) was evaluated in the carrageenan rat paw edema model. Rats were gavaged with each constituent as they appeared in 300 mg/kg of the AP. For the 1:2 ratio of AP, 100 mg/kg of Alpinia and 200 mg/kg of Pepper extract were administered to the rats. The percent inhibition of pain and inflammation of the compositions at 300 mg/kg was compared with those dosages of individual extracts to find out potential additive, antagonistic or synergistic effects in combination using Colby's equation (Colby 1967). For the blending of these plant extracts to have unexpected synergy, the observed inhibition needed to be greater than the calculated value.
A general note: Carrageenan injected into the paw causes an acute inflammation.

Test [3] shares this test system. The experiment in a line: Carrageenan-induced paw edema in rats, pain sensitivity (anti-pain). It is filed as in vivo, rat. As to the method: as §1, §2, §3
Where [4] appears, read: hot plate 53° C., topical, vehicle V1 (DMSO+PG+Aloe 2%), dose (%): Ibuprofen 5, Capsaicin 0.5, Diclofenac 1, others 5.
Setting [5] is: vs vehicle V1, dose (%): Ibuprofen 5, Capsaicin 0.5, Diclofenac 1, others 5.
The mark [6] stands for this setting: 100 mg/kg oral, 1 hr after treatment.
[7] abbreviates: 100 mg/kg oral, 3 hr after treatment.
The mark [8] stands for this setting: 100 mg/kg oral, 5 hr after treatment.
Setting [9] is: 150 mg/kg oral, 1 hr after treatment.
The mark [10] stands for this setting: 150 mg/kg oral, 3 hr after treatment.
[11] abbreviates: 150 mg/kg oral, 5 hr after treatment.

“And” between values parts separate entries of the source, which are not always exact repeats. Equal entries are not always repeated.

In the case of Piperine, the “Paw withdrawal threshold (latency) Mean ± SD” value in the test on Sprague Dawley rats (hot plate 53° C., topical, vehicle V2 (DMSO+OIL+PG), run 1, dose 5%) is 7.97 ± 1.86. The “increase in paw withdrawal latency as compared to vehicle” value in the test on Sprague Dawley rats (topical, hot plate 53° C.) was found to be 32.6%. In the test on Sprague Dawley rats (vs vehicle V2 run 1, dose 5%), the “% Change” value is listed as −32.6%. Besides, the “Inhibition of GAG release” value in test [1] (50 μg/ml) is 98%.
The inhibition is the change of the read-out against control, counted positive when it falls. As for `C=CCc1ccc(O)c(-c2ccc(O)c(CC=C)c2)c1` [Honokiol], the inhibition at 10 µg/mL in test [1] (Oryctolagus cuniculus, 10 μg/ml) is 104%. The inhibition at 50 µg/mL in test [1] (Oryctolagus cuniculus, 50 μg/ml) worked out at 119%.
For the compound `CC1CCC(C(C)C)C(O)C1` (stereo not drawn) [Menthol], the “Paw withdrawal threshold (latency) Mean ± SD” value with Sprague Dawley rats (setting [4]) is given as 6.05 ± 1.70. Moreover, the “% Change” value in the test with Sprague Dawley rats (setting [5]) is 15.1%.
For the compound `C=C[C@H](OC(C)=O)c1ccc(OC(C)=O)cc1` [1′-acetoxychavicol acetate], in test [1] (Oryctolagus cuniculus), the inhibition at 25 µg/mL is 99% and the inhibition at 100 µg/mL turned out to be 109%.
On the same counts, the results for `CC(=O)OC/C=C/c1ccc(OC(C)=O)cc1` [p-coumaryl diacetate] are 111% and 138%.
For `COc1cc(CNC(=O)CCCC/C=C/C(C)C)ccc1O` [Capsaicin], the “Paw withdrawal threshold (latency) Mean ± SD” value with Sprague Dawley rats (setting [4]) is recorded as 4.51 ± 1.12. Further, the “decrease in paw withdrawal latency compared to vehicle” value with Sprague Dawley rats (topical, hot plate 53° C.) amounted to 36.7%. For the same compound, the “% Change” value with Sprague Dawley rats (setting [5]) is 36.7%.
As for `CC1(C)CCC2(C(=O)O)CCC3(C)C(=CCC4C5(C)CCC(OC6OC(C(=O)O)C(O)C(OC7OCC(O)C(O)C7O)C6O)C(C)(C)C5CCC43C)C2C1` (stereo not drawn) [Momordin lc], in test [1] (Oryctolagus cuniculus), the inhibition at 25 µg/mL is 84% and the inhibition at 100 µg/mL came to 83%.
Consider `C=CCc1ccc(O)c(-c2cc(CC=C)ccc2O)c1` [Magnolol], for which the “Inhibition of GAG release” value in test [1] (10 μg/ml) and in test [1] (50 μg/ml) was 97% each time.
Take `CC(C)Cc1ccc(C(C)C(=O)O)cc1` (stereo not drawn) [Ibuprofen]: the “Paw withdrawal threshold (latency) Mean ± SD” value was 8.73 ± 1.37 in the test with Sprague Dawley rats (setting [4]) and 6.05 ± 1.98 in the test with Sprague Dawley rats (hot plate 53° C., topical, vehicle V2 (DMSO+OIL+PG), run 2, dose 5%). Moreover, the “increase in paw withdrawal latency as compared to vehicle” value with Sprague Dawley rats (topical, hot plate 53° C.) was found to be 22.4%. The “% Change” value is −22.4% in the test with Sprague Dawley rats (setting [5]) and −23.98% with Sprague Dawley rats (vs vehicle V2 run 2, dose 5%). For the same compound, the “Anti-inflammation Percent change vs vehicle” value is 50.07% and 45.00% and 51.0% in test [2] (setting [6]); 47.40% and 50.31% and 48.0% in test [2] (setting [7]); 37.28% and 41.84% and 39.0% in test [2] (setting [8]); 43.03% and 49.50% and 47.3% in test [2] (setting [9]); 48.38% and 48.62% and 49.7% in test [2] (setting [10]); 36.79% and 37.66% and 37.6% in test [2] (setting [11]). Also, the “Paw edema, Average” value in test [2] (150 mg/kg oral, 1 hr) was 1.43; in test [2] (150 mg/kg oral, 3 hr), 1.59; in test [2] (150 mg/kg oral, 5 hr) it was 1.77. Also, the “Anti-pain Percent change vs vehicle” value in test [3] (setting [6]) was 50.51% and 48.44% and 50.5%; in test [3] (setting [7]), 46.37% and 47.46% and 46.1%; in test [3] (setting [8]) it was 37.42% and 37.77% and 38.5%; in test [3] (setting [9]), 46.49% and 50.51% and 44.4%; in test [3] (setting [10]), 45.85% and 46.37% and 47.9%; in test [3] (setting [11]) it was 33.55% and 37.42% and 30.8%. Besides, the “Pain sensitivity, Average” value in test [3] (150 mg/kg oral, 1 hr) is 25.02; in test [3] (150 mg/kg oral, 3 hr) it was 35.67; in test [3] (150 mg/kg oral, 5 hr), 45.49.
